The values that follow come from BindingDB's records for doi:10.1111/j.1747-0285.2008.00745.x (University of Connecticut, 2009).

This assay concerns the target T1, Dihydrofolate reductase (Candida glabrata (strain ATCC 2001 / BCRC 20586 / JCM 3761 / NBRC 0622 / NRRL Y-65 / CBS 138), UniProt Q6FPH0).
T1 sequence (Q6FPH0 whole entry): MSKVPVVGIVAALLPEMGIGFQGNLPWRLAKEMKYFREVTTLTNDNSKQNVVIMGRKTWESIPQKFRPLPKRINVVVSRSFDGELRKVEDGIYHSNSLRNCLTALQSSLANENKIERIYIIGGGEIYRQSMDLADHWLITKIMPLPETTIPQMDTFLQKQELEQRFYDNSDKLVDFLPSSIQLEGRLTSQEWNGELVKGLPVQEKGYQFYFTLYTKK
Nature of the assay: Enzyme Inhibition Assay. The method, then: Enzyme activity assay were performed by monitoring the rate of enzyme-dependent NADPH consumption at an absorbance of 340 nm over 5 min.
The compound `COc1cc(-c2ccc(C)cc2)cc([C@@H](C)C#Cc2c(C)nc(N)nc2N)c1` (racemic) had an IC50 of 0.61 nM.

As for `COc1ccc(-c2cc(OC)cc(C(C)C#Cc3c(C)nc(N)nc3N)c2)cc1` (racemic), the concentration for half-maximal inhibition (IC50) worked out at 6.4 nM.

With `COc1cc(-c2cc(C)cc(C)c2)cc([C@@H](C)C#Cc2c(C)nc(N)nc2N)c1` (racemic) [Biphenyl antifolate, 2], inhibition was half-maximal at 0.55 nM (IC50).

In turn, `COc1cc(-c2c(C)cccc2C)cc(C(C)C#Cc2c(C)nc(N)nc2N)c1` (racemic) [Biphenyl antifolate, 6] gave an IC50 of 5.5 nM.

Consider `COc1cc(-c2ccc(C(C)(C)C)cc2)cc(C(C)C#Cc2c(C)nc(N)nc2N)c1` (racemic) [Biphenyl antifolate, 24], for which it took 10 nM to reach half-maximal inhibition (IC50). Compared with the last compound, the IC50 is about 1.8-fold higher.

On to `COc1cc(-c2ccccc2C)cc(C(C)C#Cc2c(C)nc(N)nc2N)c1` (stereo unspecified) [5-{3-[3-methoxy-5-(2-methylphenyl)phenyl]but-1-yn-1-yl}-6-methylpyrimidine-2,4-diamine], for which the half-inhibitory concentration (IC50) was 7.3 nM.

As a reminder, the IC50 is the concentration that inhibits the measured activity by half. A lower IC50 goes with greater potency in that assay.
